Experimental findings from patent US9365562B2, “1,3 substituted azetidine PDE10 inhibitors” (Merck Sharp & Dohme Corp., priority 2011, dated 2016) are described below.

In this experiment the target is human PDE10A2 (Homo sapiens (Human), UniProt Q9Y233). Description: PDE10 fluorescence polarization (IMAP FP) inhibition assay. Particulars: apparent inhibition constant, FAM-labeled cAMP substrate 50 nM, room temperature. The experiment is classed as biochemical. The protocol:
The activity of the compounds in accordance with the present invention as PDE10 inhibitors may be readily determined without undue experimentation using a fluorescence polarization (FP) methodology that is well known in the art (Huang, W., et al., J. Biomol Screen, 2002, 7: 215).
In a typical experiment the PDE10 inhibitory activity of the compounds of the present invention was determined in accordance with the following experimental method. PDE10A2 was amplified from human fetal brain cDNA (Clontech, Mountain View, Calif.) using a forward primer corresponding to nucleotides 56-77 of human PDE10A2 (Accession No. AF127480, Genbank Identifier 4894716), containing a Kozak consensus sequence, and a reverse primer corresponding to nucleotides 2406-2413 of human PDE10A2 (Accession No. AF127480, Genbank Identifier 4894716). Amplification with Easy-A polymerase (Stratagene, La Jolla, Calif.) was 95° C. for 2 minutes followed by thirty three cycles of 95° C. for 40 seconds, 55° C. for 30 seconds, and 72° C. for 2 minutes 48 seconds. Final extension was 72° C. for 7 minutes. The PCR product was TA cloned into pcDNA3.2-TOPO (Invitrogen, Carlsbad, Calif.) according to standard protocol. AD293 cells with 70-80% confluency were transiently transfected with human PDE10A2/pcDNA3.2-TOPO using Lipofectamine 2000 according to manufacturer specifications (Invitrogen, Carlsbad, Calif.). Cells were harvested 48 hours post-transfection and lysed by sonication (setting 3, 10×5 sec pulses) in a buffer containing 20 mM HEPES, 1 mM EDTA and protease inhibitor cocktail (Roche). Lysate was collected by centrifugation at 75,000×g for 20 minutes. Supernatant containing the cytoplasmic fraction was used for evaluation of PDE10A2 activity. The fluorescence polarization assay for cyclic nucleotide phosphodiesterases was performed using an IMAP® FP kit supplied by Molecular Devices, Sunnyvale, Calif. (product # R8139). IMAP® technology has been applied previously to phosphodiesterase assays (Huang, W., et al., J. Biomol Screen, 2002, 7: 215). Assays were performed at room temperature in 384-well microtiter plates with an incubation volume of 20.2 μL. Solutions of test compounds were prepared in DMSO and serially diluted with DMSO to yield 8 μL of each of 10 solutions differing by 3-fold in concentration, at 32 serial dilutions per plate. 100% inhibition is determined using a known PDE10 inhibitor, which can be any compound that is present at 5,000 times its Ki value in the assay described as follows, such as papaverine (see Siuciak, et al. Neuropharmacology (2006) 51:386-396; Becker, et al. Behav Brain Res (2008) 186(2):155-60; Threlfell, et al., J Pharmacol Exp Ther (2009) 328(3):785-795), 2-{4-[pyridin-4-yl-1-(2,2,2-trifluoroethyl)-1H-pyrazol-3-yl]phenoxymethyl}quinoline succinic acid or 2-[4-(1-methyl-4-pyridin-4-yl-1H-pyrazol-3-yl)-phenoxymethyl]quinoline succinic acid (see Schmidt, et al. J Pharmacol Exp Ther (2008) 325:681-690; Threlfell, et al., J Pharmacol Exp Ther (2009) 328(3): 785-795). 0% of inhibition is determined by using DMSO (1% final concentrations). A Labcyte Echo 555 (Labcyte, Sunnyvale, Calif.) is used to dispense […] from each well of the titration plate to the 384 well assay plate. A solution of enzyme (1/7000 dilution from aliquots; sufficient to produce 20% substrate conversion) and a separate solution of FAM-labeled cAMP PDE from Molecular Devices (product # R7506), at a final concentration of 50 nM are made in the assay buffer (10 mM Tris HCl, pH 7.2, 10 mM MgCl2, 0.05% NaN3 0.01% Tween-20, and 1 mM DTT). The enzyme is added to the assay plates by the addition of 10 μL of enzyme solution to each well, shaken to mix and incubated at room temperature for 60 minutes. The substrate is then added to the assay plates by the addition of 10 μL of substrate solution to each well, shaken to mix, and incubated at room temperature for 60 minutes. […]

Chain of human PDE10A2 (Q9Y233 267-1055): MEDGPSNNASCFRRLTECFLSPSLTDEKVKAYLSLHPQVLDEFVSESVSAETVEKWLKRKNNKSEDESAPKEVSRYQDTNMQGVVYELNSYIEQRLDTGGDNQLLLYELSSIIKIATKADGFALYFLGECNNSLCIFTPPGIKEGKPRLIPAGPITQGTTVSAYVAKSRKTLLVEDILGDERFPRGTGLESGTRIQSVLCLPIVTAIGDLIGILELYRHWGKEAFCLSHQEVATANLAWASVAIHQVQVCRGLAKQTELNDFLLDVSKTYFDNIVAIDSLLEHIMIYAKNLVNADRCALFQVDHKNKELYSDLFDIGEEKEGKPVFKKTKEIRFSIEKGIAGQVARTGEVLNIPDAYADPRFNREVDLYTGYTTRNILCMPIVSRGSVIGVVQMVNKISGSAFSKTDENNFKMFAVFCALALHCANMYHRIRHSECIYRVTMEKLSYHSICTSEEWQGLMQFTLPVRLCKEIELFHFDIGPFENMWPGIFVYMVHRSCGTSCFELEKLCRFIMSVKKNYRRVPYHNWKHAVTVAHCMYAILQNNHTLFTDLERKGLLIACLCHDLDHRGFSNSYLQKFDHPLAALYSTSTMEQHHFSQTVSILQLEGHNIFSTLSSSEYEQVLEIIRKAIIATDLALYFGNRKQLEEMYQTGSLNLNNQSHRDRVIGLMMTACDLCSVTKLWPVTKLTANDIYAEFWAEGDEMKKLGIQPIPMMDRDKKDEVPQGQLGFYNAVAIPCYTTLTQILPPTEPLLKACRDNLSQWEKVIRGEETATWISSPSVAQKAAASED

As for `Cc1nc(C)n(-c2cc(N3CC(c4nc5ccccc5n4C)C3)nc(C(F)(F)F)n2)n1` [Example 60, 2-{1-[6-(3,5-dimethyl-1H-1,2,4-triazol-1-yl)-2-(trifluoromethyl)pyrimidin-4-yl]azetidin-3-yl}-1-methyl-1H-benzimidazole], the Ki was 1.1 nM.

Consider `Cc1nc(N2CC(c3nc4ccccc4n3C)C2)cc(-n2nc(C)nc2-c2ccccc2)n1` [Example 49, 1-methyl-2-(1-(2-methyl-6-(3-methyl-5-phenyl-1H-1,2,4-triazol-1-yl)pyrimidin-4-yl)azetidin-3-yl)-1H-benzo[d]imidazole], for which the Ki was 6.8 nM.

Turning to `Cc1ccc(C2CN(c3cc(-n4nc(C)nc4C)nc(C)n3)C2)nc1` [Example 126, 4-(3,5-Dimethyl-1H-1,2,4-triazol-1-yl)-2-methyl-6-[3-(5-methylpyridin-2-yl)azetidin-1-yl]pyrimidine], the Ki is 407 nM. Then `CCn1c(C2CN(c3cc(-n4nc(C)nc4C)nc(C)n3)C2)nc2ccccc21` [Example 114, 2-(1-(6-(3,5-Dimethyl-1H-1,2,4-triazol-1-yl)-2-methylpyrimidin-4-yl)azetidin-3-yl)-1-ethyl-1H-benzo[d]imidazole], with 5.9 nM; and `CSc1nc(N2CC(c3nc4ccccc4n3C)C2)cc(-n2nc(C)nc2C)n1` [Example 23, 2-(1-(6-(3,5-dimethyl-1H-1,2,4-triazol-1-yl)-2-(methylthio)pyrimidin-4-yl)azetidin-3-yl)-1-methyl-1H-benzo[d]imidazole], with 0.2 nM; and `COc1nc(N2CC(c3nc4ccccc4n3C)C2)cc(-n2nc(C)nc2C2CC2)n1` [Example 63, 2-(1-(6-(5-cyclopropyl-3-methyl-1H-1,2,4-triazol-1-yl)-2-methoxypyrimidin-4-yl)azetidin-3-yl)-1-methyl-1H-benzo[d]imidazole], with 1.8 nM.

As to `Cc1nc(N2CC(c3nc4ccccc4n3CCF)C2)cc(-n2nc(C)nc2C)n1` [Example 116, 2-(1-(6-(3,5-dimethyl-1H-1,2,4-triazol-1-yl)-2-methylpyrimidin-4-yl)azetidin-3-yl)-1-(2-fluoroethyl)-1H-benzo[d]imidazole], the Ki amounted to 6.2 nM. With `CCc1nc(C)nn1-c1cc(N2CC(c3nc4ccccc4n3C)C2)nc(C)n1` [Example 35, 2-(1-(6-(5-ethyl-3-methyl-1H-1,2,4-triazol-1-yl)-2-methylpyrimidin-4-yl)azetidin-3-yl)-1-methyl-1H-benzo[d]imidazole], the Ki was determined as 0.81 nM. Then `CC(=O)c1ccnc(-c2cc(N3CC(c4nc5ccccc5n4C)C3)nc(C)n2)c1` [Example 101, 1-(2-(2-methyl-6-(3-(1-methyl-1H-benzo[d]imidazol-2-yl)azetidin-1-yl)pyrimidin-4-yl)pyridin-4-yl)ethanone], with 31 nM; and `CC(=O)c1ccc(-c2cc(N3CC(c4nc5ccccc5n4C)C3)nc(C)n2)nc1` [Example 102, 1-(6-(2-methyl-6-(3-(1-methyl-1H-benzo[d]imidazol-2-yl)azetidin-1-yl)pyrimidin-4-yl)pyridin-3-yl)ethanone], with 9 nM; and `Cc1nc(C2CCOCC2)n(-c2cc(N3CC(c4nc5ccccc5n4C)C3)nc(C(F)(F)F)n2)n1` [Example 69, 1-methyl-2-(1-(6-(3-methyl-5-(tetrahydro-2H-pyran-4-yl)-1H-1,2,4-triazol-1-yl)-2-(trifluoromethyl)pyrimidin-4-yl)azetidin-3-yl)-1H-benzo[d]imidazole], with 1.8 nM.

Regarding `Cc1nc(N2CC(c3nc4ccccc4n3C)C2)cc(-n2nc(C)nc2C2CCCCC2)n1` [Example 45, 2-(1-(6-(5-cyclohexyl-3-methyl-1H-1,2,4-triazol-1-yl)-2-methylpyrimidin-4-yl)azetidin-3-yl)-1-methyl-1H-benzo[d]imidazole], the Ki amounted to 2 nM. For the molecule `Cc1cc(C(F)(F)F)n(-c2cc(N3CC(c4nc5ccccc5n4C)C3)nc(C)n2)n1` [Example 10, 1-methyl-2-(1-(2-methyl-6-(3-methyl-5-(trifluoromethyl)-1H-pyrazol-1-yl)pyrimidin-4-yl)azetidin-3-yl)-1H-benzo[d]imidazole], the Ki worked out at 4 nM. Take `Cc1nc(N2CC(c3nc4ccccc4n3C)C2)cc(-n2nc(C)nc2-c2ccc(C#N)cc2)n1` [Example 54, 4-(3-methyl-1-(2-methyl-6-(3-(1-methyl-1H-benzo[d]imidazol-2-yl)azetidin-1-yl)pyrimidin-4-yl)-1H-1,2,4-triazol-5-yl)benzonitrile]: the Ki worked out at 16 nM. On to `Cc1nc(-c2ccccc2OC(F)F)cc(N2CC(c3nc4ccccc4n3C)C2)n1` [Example 91, 2-(1-(6-(2-(difluoromethoxy)phenyl)-2-methylpyrimidin-4-yl)azetidin-3-yl)-1-methyl-1H-benzo[d]imidazole], for which the Ki stood at 22 nM.

As to `COc1nc(N2CC(c3nc4ccccc4n3C)C2)cc(-n2nc(C)nc2C)n1` [Example 62, 2-{1-[6-(3,5-dimethyl-1H-1,2,4-triazol-1-yl)-2-methoxypyrimidin-4-yl]azetidin-3-yl}-1-methyl-1H-benzimidazole], the Ki worked out at 0.76 nM. Then `Cc1nc(N2CC(c3nc4c(C)cccc4n3C)C2)cc(-n2nc(C)nc2C)n1` [Example 124, 2-(1-(6-(3,5-dimethyl-1H-1,2,4-triazol-1-yl)-2-methylpyrimidin-4-yl)azetidin-3-yl)-1,4-dimethyl-1H-benzo[d]imidazole], with 22 nM; and `Cc1cnn(-c2cc(N3CC(c4nc5ccccc5n4C)C3)nc(C(F)(F)F)n2)n1` [Example 31, 1-methyl-2-(1-(6-(4-methyl-2H-1,2,3-triazol-2-yl)-2-(trifluoromethyl)pyrimidin-4-yl)azetidin-3-yl)-1H-benzo[d]imidazole], with 1.2 nM; and `Cc1nc(N2CC(c3nc4ccccc4n3C)C2)cc(-n2nncc2C)n1` [Example 27, 1-methyl-2-(1-(2-methyl-6-(5-methyl-1H-1,2,3-triazol-1-yl)pyrimidin-4-yl)azetidin-3-yl)-1H-benzo[d]imidazole], with 8.5 nM. Turning to “1-(1-{2-methoxy-6-3-(1-methyl-1H-benzimidazol-2-yl)azetidin-1-yl]pyrimidin-4-yl}-1H-pyrazol-4-yl)ethanol [Example 20]”, the Ki stood at 37 nM. On to `Cc1cnn(-c2cc(N3CC(c4nc5ccccc5n4C)C3)nc(C3CC3)n2)n1` [Example 33, 2-(1-(2-cyclopropyl-6-(4-methyl-2H-1,2,3-triazol-2-yl)pyrimidin-4-yl)azetidin-3-yl)-1-methyl-1H-benzo[d]imidazole], for which the Ki amounted to 0.54 nM. Regarding `Cc1nc(N2CC(c3nc4ccccc4n3C)C2)cc(-n2nc(C)nc2-c2cccnc2)n1` [Example 52, 1-methyl-2-(1-(2-methyl-6-(3-methyl-5-(pyridin-3-yl)-1H-1,2,4-triazol-1-yl)pyrimidin-4-yl)azetidin-3-yl)-1H-benzo[d]imidazole], the Ki amounted to 7.5 nM. The figure for `COCc1nc(C)nn1-c1cc(N2CC(c3nc4ccccc4n3C)C2)nc(C)n1` [Example 59, 2-(1-{6-[5-(methoxymethyl)-3-methyl-1H-1,2,4-triazol-1-yl]-2-methylpyrimidin-4-yl}azetidin-3-yl)-1-methyl-1H-benzimidazole] is 1.5 nM.
